From patent US10011571B2, “Preparation method for aromatic heterocyclic compound used as selective JAK3 and/or JAK1 kinase inhibitor and application of aromatic heterocyclic compound” (SHENZHEN CHIPSCREEN BIOSCIENCES, LTD., priority 2014, dated 2018) come the findings set out here.

One test deals with JAK3 (Homo sapiens (Human), UniProt P52333). Nature of the test: Z'-LYTE enzymatic activity detection, JAK3. The format is biochemical. The conditions noted are these: test compound 30 nM; for inhibition at 0.03 µM: read-out: JAK3 % inhibitory rate @30 nM. The essentials:
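GST-tagged human recombinant kinases with Z′-LYTE peptides (Tyr6 for JAK1, Tyr4 for JAK2 and JAK3), ATP from kit, reacted 1 h at room temperature; development 1 h, ratio 445/520 nm at 400 nm excitation gives phosphorylation. Inhibition vs solvent control at 30 nM (JAK2, JAK3) or 300 nM (JAK1); tofacitinib as positive control.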

The test system of a further test is CTLL-2 cells. Briefly: Cell growth activity assay (MTS), CTLL-2 cell model. It is filed as cell-based, mouse. Conditions: Mus musculus; for activity at 0.3 µM: CTLL-2, 300 nM, 24 h, read-out: CTLL-2 % growth rate @300 nM; for GI50: CTLL-2, 24 h. In a few lines:
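Mouse IL-2-dependent T-cell line seeded ~20,000 cells/well, compounds added after 24 h at gradient concentrations (top 10 μM; CTLL-2 evaluation at 300 nM), cultured another 24 h. MTS/PMS added, 2 h at 37° C, absorbance 490 nm; inhibition vs DMSO control after negative-control background subtraction, GI50 calculated; triplicate.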

Chain of JAK3 (P52333 whole entry): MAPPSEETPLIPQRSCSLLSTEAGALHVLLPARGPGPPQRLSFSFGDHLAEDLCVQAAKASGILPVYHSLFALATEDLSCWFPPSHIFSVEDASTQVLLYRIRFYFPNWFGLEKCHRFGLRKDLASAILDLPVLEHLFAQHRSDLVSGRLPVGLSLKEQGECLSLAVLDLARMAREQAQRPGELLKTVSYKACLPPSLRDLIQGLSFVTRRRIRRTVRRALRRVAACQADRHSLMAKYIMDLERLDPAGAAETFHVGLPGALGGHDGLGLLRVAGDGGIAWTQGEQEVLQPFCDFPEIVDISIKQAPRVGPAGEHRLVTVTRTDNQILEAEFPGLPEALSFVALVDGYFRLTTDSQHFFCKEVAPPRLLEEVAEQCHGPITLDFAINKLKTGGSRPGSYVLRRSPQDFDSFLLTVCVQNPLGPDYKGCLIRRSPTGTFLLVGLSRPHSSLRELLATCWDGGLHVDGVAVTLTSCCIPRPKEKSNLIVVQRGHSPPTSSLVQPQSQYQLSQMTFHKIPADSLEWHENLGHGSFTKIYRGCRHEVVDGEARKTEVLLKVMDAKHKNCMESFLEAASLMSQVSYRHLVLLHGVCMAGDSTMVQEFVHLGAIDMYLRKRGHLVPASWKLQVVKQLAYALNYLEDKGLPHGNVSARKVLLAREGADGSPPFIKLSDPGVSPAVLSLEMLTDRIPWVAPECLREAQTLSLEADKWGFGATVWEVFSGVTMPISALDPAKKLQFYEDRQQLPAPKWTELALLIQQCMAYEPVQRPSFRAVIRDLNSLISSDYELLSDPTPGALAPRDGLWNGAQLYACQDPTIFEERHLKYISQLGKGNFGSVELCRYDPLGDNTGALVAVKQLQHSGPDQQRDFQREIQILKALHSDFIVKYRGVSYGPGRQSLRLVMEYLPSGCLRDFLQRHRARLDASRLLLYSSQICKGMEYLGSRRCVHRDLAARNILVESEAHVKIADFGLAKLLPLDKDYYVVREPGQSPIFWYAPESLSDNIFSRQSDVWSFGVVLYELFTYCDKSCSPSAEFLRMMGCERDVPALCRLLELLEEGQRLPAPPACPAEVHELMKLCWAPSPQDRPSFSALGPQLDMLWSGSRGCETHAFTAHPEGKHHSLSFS

For `C=CC(=O)N(C)c1cc(Nc2ncc(Cl)c(NCCCNC(=O)c3ccc(C#N)cc3)n2)ccc1F` [Example 7, N-(3-(5-chloro-2-(4-fluoro-3-(N-methylacrylamido)phenylamino)pyrimidinyl-4-amino)propyl)-4-cyano-benzamide], on JAK3, the “JAK3 RV (ratio between the inhibitory rate of the test compound and that of Xeljanz)” value amounted to 0.84; the inhibition at 0.03 µM amounted to 63%. For the same compound, in the test on CTLL-2 cells, the activity at 0.3 µM was found to be 10% and it took 116 nM to inhibit growth by half (GI50).

On to `C=CC(=O)N(C)c1cc(Nc2ncc(Cl)c(NCCCNC(=O)c3ccc(C(F)(F)F)cc3)n2)ccc1F` [Example 22, N-(3-(5-chloro-2-(4-fluoro-3-(N-methylacrylamido)phenylamino)pyrimidinyl-4-amino)propyl)-4-trifluoromethylbenzamide], for which, on JAK3, the “JAK3 RV (ratio between the inhibitory rate of the test compound and that of Xeljanz)” value is reported as 0.82; the inhibition at 0.03 µM came to 75%. Also, in the test on CTLL-2 cells, the activity at 0.3 µM is 7% and the GI50 came to 249 nM.

For `C=CC(=O)N(C)c1cc(Nc2ncc(Cl)c(NCCCNC(=O)c3ccc(F)cc3)n2)ccc1F` [Example 23, N-(3-(5-chloro-2-(4-fluoro-3-(N-methylacrylamido)phenylamino)pyrimidinyl-4-amino)propyl)-4-fluorobenzamide], at JAK3, the “JAK3 RV (ratio between the inhibitory rate of the test compound and that of Xeljanz)” value is 0.88; the inhibition at 0.03 µM came to 81%. Also, in the test with CTLL-2 cells, the activity at 0.3 µM is 4% and the concentration for 50% growth inhibition (GI50) came out at 140 nM.

Usually GI50 stands for the concentration that inhibits growth by half. A lower GI50 goes with more potent growth inhibition.
